The nature of this series: Solubility of nimodipine in various aqueous solvent systems. Conditions: for solubility: aqueous solvent system (glycerin/ethanol/water/PEG400), aqueous with cosolvent or surfactant or cyclodextrin, thermodynamic from solid, Nimodipine solubility. Format: physicochemical.

The structures appear in SMILES notation. Converted amounts (≈) assume the structure as drawn.

For orientation: solubility means the dissolved amount per volume that the medium holds.

In the case of `COCCOC(=O)C1=C(C)NC(C)=C(C(=O)OC(C)C)C1c1cccc([N+](=O)[O-])c1` (stereo not drawn) [Nimodipine], the solubility reads like this: (Glycerin 0%, Ethanol 0%, Water 1%, PEG400 99%) 43000 µg/mL (≈ 103 mM); (Glycerin 0%, Ethanol 0%, Water 5%, PEG400 95%) 38000 µg/mL (≈ 90.8 mM); (Glycerin 0%, Ethanol 0%, Water 10%, PEG400 90%) 26000 µg/mL (≈ 62.1 mM); (Glycerin 0%, Ethanol 0%, Water 15%, PEG400 85%) 14000 µg/mL (≈ 33.5 mM); (Glycerin 0%, Ethanol 0%, Water 40%, PEG400 60%) 1300 µg/mL (≈ 3.11 mM); (Glycerin 0%, Ethanol 0%, Water 50%, PEG400 50%) 400 µg/mL (≈ 0.956 mM). This compound returned a solubility (Glycerin 0%, Ethanol 1.0%, Water 10%, PEG400 89%) of 31000 µg/mL (≈ 74.1 mM); a solubility (Glycerin 0%, Ethanol 1.0%, Water 20%, PEG400 79%) of 18000 µg/mL (≈ 43 mM); a solubility (Glycerin 0%, Ethanol 5.0%, Water 10%, PEG400 85%) of 29000 µg/mL (≈ 69.3 mM); a solubility (Glycerin 0%, Ethanol 5.0%, Water 20%, PEG400 75%) of 14000 µg/mL (≈ 33.5 mM); a solubility (Glycerin 20%, Ethanol 0%, Water 20%, PEG400 60%) of 1500 µg/mL (≈ 3.58 mM); a solubility (Glycerin 30%, Ethanol 0%, Water 10%, PEG400 60%) of 1600 µg/mL (≈ 3.82 mM). This compound yielded a solubility (Glycerin 35%, Ethanol 0.4%, Water 1%, PEG400 63%) of 13400 µg/mL (≈ 32 mM); a solubility (Glycerin 35%, Ethanol 0.4%, Water 10%, PEG400 54%) of 5700 µg/mL (≈ 13.6 mM); a solubility (Glycerin 36%, Ethanol 0.4%, Water 20%, PEG400 43% (Table VI)) of 1500 µg/mL (≈ 3.58 mM); a solubility (Glycerin 36%, Ethanol 0.4%, Water 20%, PEG400 43% (Table VII)) of 1500 µg/mL (≈ 3.58 mM); a solubility (Glycerin 39%, Ethanol 0%, Water 1%, PEG400 60%) of 2100 µg/mL (≈ 5.02 mM); a solubility (Glycerin 46%, Ethanol 0.4%, Water 10%, PEG400 43%) of 1500 µg/mL (≈ 3.58 mM). Also, the solubility turned out to be 4300 µg/mL (≈ 10.3 mM) (Glycerin 51%, Ethanol 0.4%, Water 5%, PEG400 43%) and 5200 µg/mL (≈ 12.4 mM) (Glycerin 55%, Ethanol 0.4%, Water 1%, PEG400 43%, room temperature). In addition, the “Effect of higher amounts of ethanol on nimodipine solubility” value (water, polyethylene glycol, ethanol solvent system, higher amounts of ethanol (Example 2)) was “reduced nimodipine solubility”.

Values taken from US11819497B2 (Azurity Pharmaceuticals, Inc., priority 2018, dated 2023).
